Results as given in ChEMBL document CHEMBL1201862, “PubChem BioAssay data set” (2004).
Calls of active or inactive are those of the source.

Tests used:
Coagulation factor XII = molecular target: T1, Coagulation factor XII (Homo sapiens, UniProt P00748); assay: Factor XIIa Dose Response Confirmation from Single Well HTS. [Related pubchem assays (depositor defined):AID701]; format: functional
T1 sequence (P00748 whole entry): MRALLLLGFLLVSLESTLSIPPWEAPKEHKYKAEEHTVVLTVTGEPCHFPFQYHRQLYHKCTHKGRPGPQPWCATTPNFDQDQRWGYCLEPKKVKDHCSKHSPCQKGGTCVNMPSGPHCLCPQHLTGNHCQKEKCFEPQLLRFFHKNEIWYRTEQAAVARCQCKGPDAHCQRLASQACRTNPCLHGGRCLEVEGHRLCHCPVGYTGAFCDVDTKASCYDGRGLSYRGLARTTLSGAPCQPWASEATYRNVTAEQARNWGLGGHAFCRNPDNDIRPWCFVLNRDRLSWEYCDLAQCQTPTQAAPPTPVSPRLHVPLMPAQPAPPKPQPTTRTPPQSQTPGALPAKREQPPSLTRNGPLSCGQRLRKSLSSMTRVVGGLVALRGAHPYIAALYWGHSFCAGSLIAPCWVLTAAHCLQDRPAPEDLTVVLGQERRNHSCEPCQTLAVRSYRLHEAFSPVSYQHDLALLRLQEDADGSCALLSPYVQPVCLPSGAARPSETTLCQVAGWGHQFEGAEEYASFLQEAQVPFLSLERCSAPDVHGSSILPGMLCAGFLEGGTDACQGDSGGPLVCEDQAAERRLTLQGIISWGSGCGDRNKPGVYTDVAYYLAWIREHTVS

[1] = molecular target: T2, Dual specificity protein phosphatase 3 (Homo sapiens, UniProt P51452); assay: SAR VHR1 absorbance Assay for In Vitro dose response studies. [Related pubchem assays (depositor defined):AID1654, AID1661, AID1878, AID1992, AID2004]
T2 sequence (P51452 whole entry): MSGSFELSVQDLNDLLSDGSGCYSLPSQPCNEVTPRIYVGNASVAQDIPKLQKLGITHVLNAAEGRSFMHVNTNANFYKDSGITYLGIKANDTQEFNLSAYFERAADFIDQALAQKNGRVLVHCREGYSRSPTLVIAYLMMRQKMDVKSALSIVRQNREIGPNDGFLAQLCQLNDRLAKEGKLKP

[2] = molecular target: T2, Dual specificity protein phosphatase 3; assay: SAR VHR1 Fluorescent Assay for In Vitro dose response studies. [Related pubchem assays (depositor defined):AID1654, AID1661, AID1878, AID1992, AID2004, AID2070, AID2085]; format: functional
[3] = molecular target: T3, Dual specificity protein phosphatase 6 (Rattus norvegicus, UniProt Q64346); format: functional;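 also: confirmatory in vitro dose-response testing of MKP-3 inhibition; recombinant His-tagged MKP-3 made in E. coli BL21 with OMFP substrate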
T3 sequence (Q64346 whole entry): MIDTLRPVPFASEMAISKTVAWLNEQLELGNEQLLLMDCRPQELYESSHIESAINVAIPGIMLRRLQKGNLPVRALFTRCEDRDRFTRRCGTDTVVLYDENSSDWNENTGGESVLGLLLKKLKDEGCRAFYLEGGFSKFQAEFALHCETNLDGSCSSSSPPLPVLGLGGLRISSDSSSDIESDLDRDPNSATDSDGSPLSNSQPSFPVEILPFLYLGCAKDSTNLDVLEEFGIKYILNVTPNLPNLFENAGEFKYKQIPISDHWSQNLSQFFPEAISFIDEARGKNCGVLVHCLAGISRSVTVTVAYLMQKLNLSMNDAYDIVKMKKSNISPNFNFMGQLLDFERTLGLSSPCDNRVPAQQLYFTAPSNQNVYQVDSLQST

[4] = molecular target: T4, Tyrosine-protein phosphatase non-receptor type 7 (Homo sapiens, UniProt P35236); assay: redox-dependent HePTP inhibition, mechanism study, biochemical, fluorescence (AID 2068); format: functional
T4 sequence (P35236 whole entry): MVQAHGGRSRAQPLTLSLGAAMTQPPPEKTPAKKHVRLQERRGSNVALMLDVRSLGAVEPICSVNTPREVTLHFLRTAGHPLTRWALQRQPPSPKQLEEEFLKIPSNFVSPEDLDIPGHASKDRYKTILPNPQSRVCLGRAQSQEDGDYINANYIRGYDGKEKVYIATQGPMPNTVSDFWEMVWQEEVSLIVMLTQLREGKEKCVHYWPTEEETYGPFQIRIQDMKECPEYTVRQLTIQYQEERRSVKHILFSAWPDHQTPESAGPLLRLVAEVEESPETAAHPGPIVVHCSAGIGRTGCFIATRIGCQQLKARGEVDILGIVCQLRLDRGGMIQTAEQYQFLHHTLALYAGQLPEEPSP

T-cell = assay: inhibitors of CD8+ T cell–vesicle binding, dose response, mouse 2C CD8+ T cells, flow cytometry (AID 485284); format: functional
Integrin alpha-L = Integrin alpha-L (Mus musculus, UniProt P24063); assay: modulators of CD8 T cell-vesicle binding, dose response, powder samples, mouse 2C CD8+ cells (AID 504565); format: functional
[5] = molecular target: T5, Kappa-type opioid receptor (Homo sapiens, UniProt P41145); assay: SAR analysis of small molecule antagonists of the kappa opioid receptor via a luminescent beta-arrestin assay - Set 3. [Related pubchem assays (depositor defined):AID1777, AID1778, AID1785, AID1786, AID1966, AID2133, AID2136, AID2285, AID2495]; format: functional
T5 sequence (P41145 whole entry): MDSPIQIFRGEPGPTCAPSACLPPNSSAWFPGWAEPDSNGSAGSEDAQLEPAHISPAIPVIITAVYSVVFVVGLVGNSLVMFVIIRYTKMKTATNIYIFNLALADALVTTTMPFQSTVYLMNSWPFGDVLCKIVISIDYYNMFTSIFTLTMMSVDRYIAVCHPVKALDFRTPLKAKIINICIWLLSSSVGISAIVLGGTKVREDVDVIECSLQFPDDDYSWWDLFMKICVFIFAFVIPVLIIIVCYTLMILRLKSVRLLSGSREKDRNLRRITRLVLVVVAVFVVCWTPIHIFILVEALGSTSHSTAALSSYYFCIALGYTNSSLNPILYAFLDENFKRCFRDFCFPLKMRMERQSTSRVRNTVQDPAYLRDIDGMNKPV

Mu-type opioid receptor = Mu-type opioid receptor (Homo sapiens, UniProt P35372); assay: SAR Analysis of Antagonists of the MOR Receptor using an Image-Based Assay - Set 3. [Related pubchem assays (depositor defined):AID1777, AID1785, AID1786, AID1966, AID2133, AID2136, AID2284, AID2285, AID2420]; format: functional
[6] = molecular target: T5, Kappa-type opioid receptor; assay: SAR analysis of Antagonists of the Kappa Opioid Receptor (KOR) using an Image-Based Assay - Set 3. [Related pubchem assays (depositor defined):AID1777, AID1785]; format: functional
[7] = molecular target: Delta-type opioid receptor (Homo sapiens, UniProt P41143); assay: SAR Analysis of Antagonists of the DOR Receptor using an Image-Based Assay - Set 3. [Related pubchem assays (depositor defined):AID1777, AID1785]; format: functional;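 also: U2OS cells expressing DOR1 and beta-arrestin GFP stimulated with 100 nM SNC80; imaging of GFP-tagged beta-arrestin moving into spots after receptor activation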
Delta-type opioid receptor, sequence (P41143 whole entry): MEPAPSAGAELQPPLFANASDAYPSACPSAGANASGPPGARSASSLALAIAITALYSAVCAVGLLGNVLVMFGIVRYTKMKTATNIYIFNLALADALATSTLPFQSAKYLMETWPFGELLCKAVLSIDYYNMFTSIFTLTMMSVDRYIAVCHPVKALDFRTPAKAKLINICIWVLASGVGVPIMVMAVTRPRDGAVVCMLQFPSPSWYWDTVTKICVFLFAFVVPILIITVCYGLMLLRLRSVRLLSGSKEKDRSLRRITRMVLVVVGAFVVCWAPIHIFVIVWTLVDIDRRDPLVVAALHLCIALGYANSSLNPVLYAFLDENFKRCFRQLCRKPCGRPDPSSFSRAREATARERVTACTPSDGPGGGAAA

Genome polyprotein = Genome polyprotein (dengue virus type 2, UniProt P29990); assay: Dengue-2 NS5 methyltransferase inhibitors, primary screen, biochemical, confirmation dose response (AID 588689); format: functional
Genome polyprotein, sequence (P29990 2492-3391 limits assumed): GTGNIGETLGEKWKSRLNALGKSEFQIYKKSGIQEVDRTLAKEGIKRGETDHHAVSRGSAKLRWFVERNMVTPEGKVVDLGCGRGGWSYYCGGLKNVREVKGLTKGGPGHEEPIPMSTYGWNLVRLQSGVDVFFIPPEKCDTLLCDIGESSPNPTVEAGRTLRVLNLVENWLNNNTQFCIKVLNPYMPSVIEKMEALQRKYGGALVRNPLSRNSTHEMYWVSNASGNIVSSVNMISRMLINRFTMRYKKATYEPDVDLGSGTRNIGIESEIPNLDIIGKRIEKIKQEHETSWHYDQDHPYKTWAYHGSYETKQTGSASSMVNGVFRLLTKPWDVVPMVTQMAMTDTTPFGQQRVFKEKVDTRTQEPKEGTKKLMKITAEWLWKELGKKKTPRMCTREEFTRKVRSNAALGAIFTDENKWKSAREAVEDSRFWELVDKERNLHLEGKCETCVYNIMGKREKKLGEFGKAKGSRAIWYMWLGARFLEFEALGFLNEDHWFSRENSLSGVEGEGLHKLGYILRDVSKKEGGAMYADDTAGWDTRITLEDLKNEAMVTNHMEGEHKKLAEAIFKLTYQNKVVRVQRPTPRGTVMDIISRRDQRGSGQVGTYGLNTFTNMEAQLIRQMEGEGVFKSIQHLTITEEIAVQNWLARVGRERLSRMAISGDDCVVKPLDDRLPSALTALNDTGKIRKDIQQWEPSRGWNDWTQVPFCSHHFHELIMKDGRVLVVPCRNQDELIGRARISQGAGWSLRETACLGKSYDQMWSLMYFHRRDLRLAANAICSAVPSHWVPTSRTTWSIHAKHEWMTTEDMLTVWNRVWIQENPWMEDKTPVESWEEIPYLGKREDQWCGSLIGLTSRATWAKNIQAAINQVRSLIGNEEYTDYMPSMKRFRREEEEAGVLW

Vero = Vero cell cytotoxicity, cytotoxicity control for flavivirus capping enzyme inhibitors (AID 588742); format: functional; settings: Chlorocebus sabaeus
[8] = molecular target: T6, Histone-lysine N-methyltransferase NSD2 (Homo sapiens, UniProt O96028); format: biochemical
T6 sequence (O96028 whole entry): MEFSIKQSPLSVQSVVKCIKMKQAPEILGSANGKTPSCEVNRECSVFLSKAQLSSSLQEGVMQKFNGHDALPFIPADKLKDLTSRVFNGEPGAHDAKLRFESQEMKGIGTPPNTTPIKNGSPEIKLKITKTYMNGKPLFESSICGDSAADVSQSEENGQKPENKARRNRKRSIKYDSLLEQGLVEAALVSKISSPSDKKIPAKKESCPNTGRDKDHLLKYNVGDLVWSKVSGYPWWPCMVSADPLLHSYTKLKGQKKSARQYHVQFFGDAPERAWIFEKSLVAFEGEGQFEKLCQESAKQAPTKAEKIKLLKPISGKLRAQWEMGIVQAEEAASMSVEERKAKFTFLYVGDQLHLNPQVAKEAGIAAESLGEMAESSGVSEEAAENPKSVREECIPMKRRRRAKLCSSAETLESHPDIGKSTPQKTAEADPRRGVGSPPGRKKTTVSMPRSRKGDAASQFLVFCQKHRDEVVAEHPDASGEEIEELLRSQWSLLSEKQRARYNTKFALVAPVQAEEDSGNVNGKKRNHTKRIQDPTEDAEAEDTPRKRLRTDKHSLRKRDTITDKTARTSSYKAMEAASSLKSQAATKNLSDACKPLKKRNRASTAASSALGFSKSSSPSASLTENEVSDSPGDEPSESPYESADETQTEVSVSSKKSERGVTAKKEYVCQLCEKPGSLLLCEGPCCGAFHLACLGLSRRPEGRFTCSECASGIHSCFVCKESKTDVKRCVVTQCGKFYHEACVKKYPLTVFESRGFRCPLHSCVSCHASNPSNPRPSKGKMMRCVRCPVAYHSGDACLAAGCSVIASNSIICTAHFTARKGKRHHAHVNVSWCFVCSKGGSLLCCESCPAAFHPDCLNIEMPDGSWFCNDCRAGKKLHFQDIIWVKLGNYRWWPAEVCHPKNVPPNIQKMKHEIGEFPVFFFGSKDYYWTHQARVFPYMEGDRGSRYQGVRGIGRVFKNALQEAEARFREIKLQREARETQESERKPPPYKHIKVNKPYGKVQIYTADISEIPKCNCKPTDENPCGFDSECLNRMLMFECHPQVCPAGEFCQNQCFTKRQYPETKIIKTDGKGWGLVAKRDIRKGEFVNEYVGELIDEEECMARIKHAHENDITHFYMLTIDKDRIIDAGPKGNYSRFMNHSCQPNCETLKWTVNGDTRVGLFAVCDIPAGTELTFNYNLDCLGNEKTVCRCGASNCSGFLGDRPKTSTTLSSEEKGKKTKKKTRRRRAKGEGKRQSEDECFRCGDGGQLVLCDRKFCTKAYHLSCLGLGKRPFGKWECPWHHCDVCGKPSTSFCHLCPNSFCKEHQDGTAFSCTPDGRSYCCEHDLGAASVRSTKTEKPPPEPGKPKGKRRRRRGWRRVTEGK

[9] = molecular target: DNA dC->dU-editing enzyme APOBEC-3A (Homo sapiens, UniProt P31941); assay: Dose Response confirmation of small molecule APOBEC3A DNA Deaminase Inhibitors via a fluorescence-based single-stranded DNA deaminase assay. [Related pubchem assays (depositor defined):AID493011, AID493024]; format: functional
[10] = molecular target: DNA dC->dU-editing enzyme APOBEC-3G (Homo sapiens, UniProt Q9HC16); format: functional;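 also: Dose-response counterscreen measuring inhibition of APOBEC3G DNA deaminase activity, run while confirming APOBEC3A inhibitors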
Hexokinase = Hexokinase (Trypanosoma brucei, UniProt Q38C41); assay: Confirmation assay for inhibitors of Trypanosoma brucei hexokinase 1-Analogue-first series. [Related pubchem assays (depositor defined):AID1430, AID1632, AID2516, AID2560, AID2579, AID2600, AID449725, AID492951]; format: functional
[11] = molecular target: Glucose-6-phosphate 1-dehydrogenase (Homo sapiens, UniProt P11413); assay: human G6PD enzyme inhibitors, dose response, selectivity assay for P. falciparum G6PD inhibitor project, biochemical, fluorescence (AID 504792); format: functional
[12] = molecular target: Bifunctional protein GlmU (Mycobacterium tuberculosis, UniProt P9WMN3); assay: Inhibitors of Mycobacterial Glucosamine-1-phosphate acetyl transferase (GlmU). Secondary screen.; set-up: species or system Mycobacterium tuberculosis H37Rv
[13] = molecular target: T7, Voltage-gated N-type calcium channel alpha-1B subunit/Amyloid beta A4 precursor protein-binding family A member 1 (Homo sapiens, UniProt Q00975+Q02410); format: protein assay
T7 sequence (Q00975 whole entry): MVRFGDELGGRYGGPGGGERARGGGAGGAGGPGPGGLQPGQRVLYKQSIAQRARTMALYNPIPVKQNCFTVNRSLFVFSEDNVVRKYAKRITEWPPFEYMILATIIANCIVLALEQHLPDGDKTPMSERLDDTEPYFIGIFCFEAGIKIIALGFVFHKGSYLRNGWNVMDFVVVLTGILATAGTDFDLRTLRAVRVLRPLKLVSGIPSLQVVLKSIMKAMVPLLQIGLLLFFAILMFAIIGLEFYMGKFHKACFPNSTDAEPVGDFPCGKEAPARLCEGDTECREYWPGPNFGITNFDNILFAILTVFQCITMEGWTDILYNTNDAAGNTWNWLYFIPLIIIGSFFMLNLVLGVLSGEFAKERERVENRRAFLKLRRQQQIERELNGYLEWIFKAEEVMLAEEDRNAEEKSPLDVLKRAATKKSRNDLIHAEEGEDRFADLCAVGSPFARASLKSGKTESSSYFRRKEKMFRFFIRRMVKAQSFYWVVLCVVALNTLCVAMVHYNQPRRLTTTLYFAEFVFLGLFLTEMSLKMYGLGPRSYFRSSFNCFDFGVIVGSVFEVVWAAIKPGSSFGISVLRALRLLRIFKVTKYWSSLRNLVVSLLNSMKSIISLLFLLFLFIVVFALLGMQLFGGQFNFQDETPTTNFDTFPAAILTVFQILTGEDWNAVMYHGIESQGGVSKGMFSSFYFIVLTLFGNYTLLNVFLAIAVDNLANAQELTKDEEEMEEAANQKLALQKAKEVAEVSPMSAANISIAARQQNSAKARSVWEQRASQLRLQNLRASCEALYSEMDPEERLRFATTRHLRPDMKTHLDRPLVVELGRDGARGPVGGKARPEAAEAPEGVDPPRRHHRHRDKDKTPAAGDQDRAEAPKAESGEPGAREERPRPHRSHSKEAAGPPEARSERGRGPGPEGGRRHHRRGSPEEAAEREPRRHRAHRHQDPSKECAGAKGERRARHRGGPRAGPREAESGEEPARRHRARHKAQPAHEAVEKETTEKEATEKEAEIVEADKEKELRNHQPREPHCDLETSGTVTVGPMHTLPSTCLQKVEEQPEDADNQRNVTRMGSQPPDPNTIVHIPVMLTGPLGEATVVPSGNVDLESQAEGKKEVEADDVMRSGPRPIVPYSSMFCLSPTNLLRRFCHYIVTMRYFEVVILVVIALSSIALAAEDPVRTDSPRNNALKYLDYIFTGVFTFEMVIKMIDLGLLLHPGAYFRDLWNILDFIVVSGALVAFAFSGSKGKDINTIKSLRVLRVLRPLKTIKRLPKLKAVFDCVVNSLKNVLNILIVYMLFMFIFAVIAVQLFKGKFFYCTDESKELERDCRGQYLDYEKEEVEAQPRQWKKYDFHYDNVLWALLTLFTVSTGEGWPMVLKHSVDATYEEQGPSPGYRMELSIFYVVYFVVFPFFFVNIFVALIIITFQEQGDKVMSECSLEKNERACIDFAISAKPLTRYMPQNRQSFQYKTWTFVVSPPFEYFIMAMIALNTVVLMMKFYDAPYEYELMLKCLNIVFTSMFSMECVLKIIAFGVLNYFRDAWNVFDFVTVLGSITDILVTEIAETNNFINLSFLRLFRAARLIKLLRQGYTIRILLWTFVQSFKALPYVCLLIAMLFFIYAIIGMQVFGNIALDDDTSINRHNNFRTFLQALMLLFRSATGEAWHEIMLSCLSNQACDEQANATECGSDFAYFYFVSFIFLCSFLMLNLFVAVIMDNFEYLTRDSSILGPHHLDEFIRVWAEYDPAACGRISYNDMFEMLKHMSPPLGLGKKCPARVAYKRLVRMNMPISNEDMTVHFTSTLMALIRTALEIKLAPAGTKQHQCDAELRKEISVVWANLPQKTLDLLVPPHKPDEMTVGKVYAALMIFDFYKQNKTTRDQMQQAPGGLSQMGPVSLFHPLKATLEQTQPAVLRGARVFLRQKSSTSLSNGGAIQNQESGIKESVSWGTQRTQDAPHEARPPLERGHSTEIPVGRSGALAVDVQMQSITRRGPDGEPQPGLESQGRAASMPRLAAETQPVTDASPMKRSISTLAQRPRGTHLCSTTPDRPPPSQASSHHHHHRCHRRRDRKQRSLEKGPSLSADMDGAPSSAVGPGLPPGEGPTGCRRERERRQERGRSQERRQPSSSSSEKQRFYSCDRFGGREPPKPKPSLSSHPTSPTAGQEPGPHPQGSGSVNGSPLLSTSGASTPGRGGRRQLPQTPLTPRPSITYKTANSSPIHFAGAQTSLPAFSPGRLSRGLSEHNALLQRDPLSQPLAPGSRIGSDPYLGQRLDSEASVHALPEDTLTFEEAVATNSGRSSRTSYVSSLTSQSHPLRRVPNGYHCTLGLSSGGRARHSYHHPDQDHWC
T7 sequence (Q02410 whole entry): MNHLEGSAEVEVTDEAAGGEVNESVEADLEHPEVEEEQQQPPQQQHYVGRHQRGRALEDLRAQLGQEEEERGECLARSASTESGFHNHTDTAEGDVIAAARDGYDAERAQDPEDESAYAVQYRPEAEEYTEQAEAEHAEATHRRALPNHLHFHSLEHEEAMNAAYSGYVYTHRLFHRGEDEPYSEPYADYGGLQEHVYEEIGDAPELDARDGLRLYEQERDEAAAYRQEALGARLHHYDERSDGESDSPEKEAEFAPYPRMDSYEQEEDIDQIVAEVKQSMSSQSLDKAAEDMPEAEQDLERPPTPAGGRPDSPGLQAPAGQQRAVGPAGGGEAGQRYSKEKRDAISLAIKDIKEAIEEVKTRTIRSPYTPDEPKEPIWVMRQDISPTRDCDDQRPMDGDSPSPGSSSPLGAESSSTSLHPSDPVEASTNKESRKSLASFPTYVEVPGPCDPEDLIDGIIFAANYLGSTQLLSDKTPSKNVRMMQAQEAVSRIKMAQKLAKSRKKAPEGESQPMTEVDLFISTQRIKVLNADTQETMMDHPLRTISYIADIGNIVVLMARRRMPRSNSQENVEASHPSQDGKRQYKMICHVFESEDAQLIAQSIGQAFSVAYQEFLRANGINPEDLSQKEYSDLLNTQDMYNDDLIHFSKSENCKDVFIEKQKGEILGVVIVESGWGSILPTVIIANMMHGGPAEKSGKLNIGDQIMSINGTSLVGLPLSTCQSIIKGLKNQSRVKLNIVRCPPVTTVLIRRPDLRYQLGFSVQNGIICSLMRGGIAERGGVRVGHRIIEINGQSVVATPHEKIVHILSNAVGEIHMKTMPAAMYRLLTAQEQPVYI

[14] = molecular target: T8, Mannose-6-phosphate isomerase (Homo sapiens, UniProt P34949); assay: human PMI inhibitors, high substrate, primary screen, biochemical, fluorescence intensity, high mannose 6-phosphate (AID 1220)
T8 sequence (P34949 whole entry): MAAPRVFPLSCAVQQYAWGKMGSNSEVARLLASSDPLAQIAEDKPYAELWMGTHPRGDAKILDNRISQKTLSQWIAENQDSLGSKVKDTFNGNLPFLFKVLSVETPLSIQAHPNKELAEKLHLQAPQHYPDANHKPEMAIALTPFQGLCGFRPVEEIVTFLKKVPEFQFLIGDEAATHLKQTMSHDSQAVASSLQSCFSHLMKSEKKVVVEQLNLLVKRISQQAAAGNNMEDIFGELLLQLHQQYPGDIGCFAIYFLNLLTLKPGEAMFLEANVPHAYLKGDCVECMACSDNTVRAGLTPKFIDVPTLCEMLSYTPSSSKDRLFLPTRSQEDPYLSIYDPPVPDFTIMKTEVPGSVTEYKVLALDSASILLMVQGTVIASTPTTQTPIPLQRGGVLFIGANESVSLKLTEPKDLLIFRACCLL

[15] = molecular target: Eukaryotic translation initiation factor 4E (Mus musculus, UniProt P63073); assay: eIF4E–eIF4G protein interaction inhibitors, dose response, biochemical, TR-FRET (AID 855); format: functional;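 also: potency for disrupting eIF4E binding to eIF4GI seen as loss of FRET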
[16] = molecular target: Induced myeloid leukemia cell differentiation protein Mcl-1 (Homo sapiens, UniProt Q07820); format: functional
[17] = molecular target: T7, Voltage-gated N-type calcium channel alpha-1B subunit/Amyloid beta A4 precursor protein-binding family A member 1; format: protein assay; remark: listed apart in the source

Cc1cc(NC(=O)COC(=O)c2c(C)nn(Cc3ccccc3)c2C)no1
IC50 (Coagulation factor XII): > 50 µM (inactive)

O=C(NCc1ccccc1)c1cn(CCOc2ccccc2)c2ccccc12
IC50 [1]: > 100 µM (inactive) | IC50 [2]: > 100 µM (inactive) | IC50 [3]: > 100 µM (inactive) | IC50 [4]: 44.1 µM (active)

Cc1cc(Cl)c(OCCCSc2nc(C)cc(O)n2)c(Br)c1
EC50 (T-cell): 56.6 µM (inactive) | EC50 (Integrin alpha-L): 17.1 µM (active)

COc1ccc(S(=O)(=O)NCc2ccc(C(=O)NCCN(Cc3ccccc3)Cc3ccccc3)cc2)cc1
IC50 [5]: > 20 µM (inactive) | IC50 (Mu-type opioid receptor): > 32 µM (inactive) | IC50 [6]: 13.1 µM (inactive) | IC50 [7]: > 32 µM (inactive)

CC(C)C1Nc2ccc(C(=O)O)cc2C2C=CCC21 (configuration not stated)
IC50 (Genome polyprotein): 38.7 µM (active) | CC50 (Vero): > 40 µM (active) | AC50 [8]: > 20 µM (inactive) | IC50 [9]: 21.8 µM (active) | IC50 [10]: 16.2 µM (active)

O=C(Nc1cc(Cl)ccc1C(=O)O)c1ccc2c(c1)OCO2
IC50 (Hexokinase): 9.43 µM (active)

Oc1ccc(/C=N/N=C(c2ccccc2)c2ccccc2)c(O)c1O
IC50 (Genome polyprotein): 23.4 µM (active) | IC50 [11]: 79.2 µM (inactive) | IC50 [12]: 19.3 µM (active) | IC50 [13]: 3.27 µM (active) | CC50 (Vero): 31.3 µM (active) | AC50 [8]: 0.635 µM (active) | IC50 [14]: 12.1 µM (active) | IC50 [15]: > 64 µM (inactive) | IC50 [16]: 4.44 µM (active) | IC50 [17]: 10.8 µM (active)
